Consider 14 compounds from PubChem BioAssay (NCI).

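Method: 48-hour compound exposure of cells in 96-well plates, five concentrations, linear interpolation of endpoints. GI50 marks 50% less growth. The concentration for full growth arrest is given as TGI.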 A value given as a limit tells only on which side of the number the result lay.

Among the test systems are 786-0 renal; CAKI-1 renal; HT29 colon; LOX IMVI melanoma; NCI-H460 lung; NCI-H522 lung; SF-539 CNS; SK-MEL-2 melanoma; UACC-257 melanoma; A498 renal.
Assay in all cases: NCI-60 cell line screen, 48 h

On to `CN(C)CCCNC(=O)c1ccc2oc3cc4ccccc4c(=O)n3c2c1`, for which the GI50 is over 50 µM in the test on 786-0 renal; 8.31 µM in the test with CAKI-1 renal; 15.4 µM in the test with HT29 colon; 10.8 µM with LOX IMVI melanoma; 16.6 µM in the test with NCI-H460 lung; 17.4 µM in the test on NCI-H522 lung. In addition, the GI50 is 13.6 µM with SF-539 CNS, over 50 µM in the test with SK-MEL-2 melanoma and 20.6 µM in the test on UACC-257 melanoma. The TGI was over 50 µM in the test with 786-0 renal; 36.5 µM in the test with CAKI-1 renal; 46.8 µM in the test on HT29 colon; 27 µM in the test on LOX IMVI melanoma; over 50 µM in the test on NCI-H460 lung; over 50 µM in the test on NCI-H522 lung. Further, the TGI was 30.5 µM in the test on SF-539 CNS, over 50 µM in the test on SK-MEL-2 melanoma and over 50 µM with UACC-257 melanoma.
In the case of `Nc1nc(Cl)cc(NCCCCCNc2cc(Cl)nc(N)n2)n1`, the TGI in the test with 786-0 renal, in the test on CAKI-1 renal, with HT29 colon, in the test with LOX IMVI melanoma, in the test on NCI-H460 lung and in the test with NCI-H522 lung was over 100 µM in each case. Further, the TGI with SF-539 CNS, in the test on SK-MEL-2 melanoma and in the test with UACC-257 melanoma was over 100 µM each time.
For `CC1=C(C(=O)Nc2ccccc2)C(c2ccc([N+](=O)[O-])cc2)C(C(=O)Nc2ccccc2)=C(C)N1`, the TGI with 786-0 renal amounted to 59 µM; with A498 renal, 93 µM; in the test on HT29 colon, 41.3 µM; with LOX IMVI melanoma, 30.5 µM; in the test on NCI-H460 lung, 70.3 µM; in the test with NCI-H522 lung, 63.8 µM. Moreover, the TGI in the test on SF-539 CNS was determined as 44.9 µM; in the test on SK-MEL-2 melanoma, 31.4 µM; in the test on UACC-257 melanoma, 53.8 µM.
On to `COc1cc(Br)c(CC2(C#N)c3ccccc3C3C(N2C(=O)c2ccccc2)C3(Cl)Cl)cc1OC` (stereo unspecified), for which the TGI with 786-0 renal, in the test on HT29 colon, in the test on LOX IMVI melanoma, with NCI-H460 lung, with NCI-H522 lung and with SF-539 CNS was over 65.5 µM each time. Also, the TGI in the test with SK-MEL-2 melanoma and in the test on UACC-257 melanoma was over 65.5 µM throughout.
Regarding `NC(=O)/C(=C\c1ccncc1)c1cccc2ccccc12`, the TGI in the test on 786-0 renal, in the test with CAKI-1 renal, in the test with HT29 colon, in the test with LOX IMVI melanoma, with NCI-H460 lung and in the test on NCI-H522 lung was over 100 µM in each case. The TGI in the test with SF-539 CNS is over 100 µM; in the test with SK-MEL-2 melanoma, over 100 µM; in the test on UACC-257 melanoma, 8.49 µM.
For the compound `CN(C)c1ncnc2c1Cc1ccccc1C(=O)N2C`, the TGI in the test with 786-0 renal, in the test on CAKI-1 renal, in the test with HT29 colon, with LOX IMVI melanoma, in the test with NCI-H460 lung and in the test with NCI-H522 lung was over 100 µM throughout. Moreover, the TGI in the test on SF-539 CNS, with SK-MEL-2 melanoma and in the test with UACC-257 melanoma was over 100 µM throughout.
For `CCSC(SCC)c1cc2c(cc1Br)OCO2`, the TGI in the test with 786-0 renal was over 100 µM; in the test with A498 renal, 86.7 µM; in the test on HT29 colon, 44.8 µM; with LOX IMVI melanoma, 38 µM; with NCI-H460 lung it was 49.4 µM; in the test with NCI-H522 lung, over 100 µM. In addition, the values for the TGI in the test with SF-539 CNS and in the test on SK-MEL-2 melanoma were 35.5 µM and 51.9 µM, respectively.
For `CC1CN(c2ccc(Cl)cc2)CC(C)(C)OC(=O)O1` (stereo unspecified), the TGI in the test with 786-0 renal, in the test on CAKI-1 renal, in the test with HT29 colon, in the test on LOX IMVI melanoma, with NCI-H460 lung and with NCI-H522 lung was over 100 µM each time. Further, the TGI in the test with SF-539 CNS, with SK-MEL-2 melanoma and with UACC-257 melanoma was over 100 µM each time.
Take `O=C(/C=C/c1ccc(O)c(O)c1)OC1C[C@@](O)(C(=O)O)C[C@@H](O)[C@H]1OC(=O)/C=C/c1ccc(O)c(O)c1` (stereo partly specified): the TGI with 786-0 renal, with A498 renal, with HT29 colon, in the test on LOX IMVI melanoma, with NCI-H460 lung and with NCI-H522 lung was over 100 µM each time. In addition, the TGI with SF-539 CNS, in the test on SK-MEL-2 melanoma and in the test on UACC-257 melanoma was over 100 µM throughout.
For the compound `O=C(NCCc1ccccc1)C(c1ccccc1)(c1ccccc1)c1ccccc1`, the GI50 in the test with 786-0 renal was 5.43 µM; in the test on CAKI-1 renal, 4.16 µM; in the test on NCI-H460 lung, 31.5 µM; in the test on NCI-H522 lung, 13.1 µM; in the test on SK-MEL-2 melanoma, 7.04 µM. In addition, the TGI in the test with 786-0 renal was over 100 µM; with CAKI-1 renal, 26.1 µM; in the test on NCI-H460 lung it was over 100 µM; with NCI-H522 lung it was 38.1 µM; with SK-MEL-2 melanoma it was 29.8 µM.
On to `CCOc1cc2ccc3c4cc(OC)c(OC)cc4cnc3c2cc1OCC`, for which the TGI in the test on 786-0 renal, in the test with A498 renal, with CAKI-1 renal, in the test with HT29 colon, in the test on NCI-H460 lung and with NCI-H522 lung was over 100 µM in each case. Also, the TGI in the test with SF-539 CNS, in the test with SK-MEL-2 melanoma and with UACC-257 melanoma was over 100 µM each time.
Consider `O=C(O)C1=C(C(=O)Nc2ccccc2)C2C=CC1C2` (stereo unspecified), for which the TGI in the test with 786-0 renal, in the test with A498 renal, in the test with HT29 colon, in the test on LOX IMVI melanoma, in the test with NCI-H460 lung and in the test with SF-539 CNS was over 100 µM each time. In the test on UACC-257 melanoma, the TGI is over 100 µM.
`CC(C)C1C(=O)NC(CO)Cc2c[nH]c3c(C(c4c[nH]c5ccccc45)C(O)CO)ccc(c23)N1C` (stereo unspecified): the TGI in the test on 786-0 renal, in the test with A498 renal, in the test with HT29 colon, in the test with LOX IMVI melanoma, with NCI-H460 lung and with NCI-H522 lung was over 100 µM each time. For the same compound, the TGI in the test with SF-539 CNS, with SK-MEL-2 melanoma and in the test with UACC-257 melanoma was over 100 µM in each case.
Consider `COc1ccc2c(c1O)C(=O)C(CCC(=O)O)CC2` (stereo unspecified), for which the TGI with 786-0 renal, in the test with A498 renal, in the test on CAKI-1 renal, in the test with HT29 colon, in the test on LOX IMVI melanoma and in the test with NCI-H460 lung was over 100 µM throughout. The TGI with SF-539 CNS and in the test on UACC-257 melanoma was over 100 µM each time.
